Where a name gives a salt, the structure may show the parent alone.
Tests used:
[1] = rat, in vivo, po; cited from earlier work
[2] = tested on: SH-SY5Y neuroblastoma cells; assay: MTT cell viability assay, Aβ(25–35)-induced neurotoxicity; assay type: cell-based; conditions: Aβ(25–35) 25 μM
Experimental: Cells were cultured in MEM supplemented with 10% heat-inactivated defined FBS, and an antibiotic mixture of 100 units/mL of penicillin and 100 μg/mL streptomycin, and grown at 37 °C in a humid atmosphere with 5% CO2.
Following the treatment, cell viability was assessed using MTT reduction assay. After adding 10 μL/well of MTT (5 mg/L) and incubating for 4 h, the supernatants were removed and 100 μL of DMSO was added in wells. After 1 h incubation at room temperature in the microshaker, the absorbance of the sample was measured by the microplate spectrophotometer reader (Molecular Devices, Sunnyvale, CA, USA) at 570 nm. The cell viability rate (%) was calculated as the absorbance of treated cells divided by that of control cells. The viability of the control cells was defined as 100%. Three independent experiments were performed in triplicate.

| Compound | donepezil excreted into urine [1] | reduction of cell viability compared to vehicle treatment [2] |
| --- | --- | --- |
| COc1cc2c(cc1OC)C(=O)C(CC1CCN(Cc3ccccc3)CC1)C2 (centres unmarked) [DNP, Donepezil hydrochloride] | 1.52% | – |
| Aβ(25–35): β-amyloid fragment used to induce neurotoxicity in SH-SY5Y cells (GSNKGAIIGLM; Amyloid-beta protein 42; UniProt P05067 696-706, looked up, fragment) | – | 36.0% |

Reference: article PMC8434012 (Molecules, 2021)
